Experimental data taken from patent US20050288323A1, “Octahydro-indolizine and quinolizine and hexahydro-pyrrolizine” (priority 2000, published 2005).

target: T1, human histamine H3 receptor (Homo sapiens, UniProt Q9Y5N1); experiment: [3H]-N-methylhistamine binding; conditions: Table 1; [3H]-N-methylhistamine binding
T1 construct: One microgram of supercoiled H3 receptor cDNA was added to the cells and mixed; expressed in transfected cells; membranes
Experimental: Thus in the present invention receptor binding was determined using the human histamine H3 receptor (See Lovenberg et al Mol. Pharmacol. 1999, 1107). Screening using the human receptor is particularly important for the identification of new therapies for the treatment of human disease. Conventional binding assays for example are determined using rat synaptosomes (Garbarg et al J. Pharmacol. Exp. Ther. 1992, 263, 304), rat cortical membranes (West et al Mol. Pharmacol. 1990, 610), and guinea pig brain (Korte et al Biochem. Biophys. Res. Commun. 1990, 978). Only limited studies have been performed previously using human tissue but these allude to significant differences in the pharmacology of rodent and primate receptors (West et al Eur. J. Pharmacol. 1999, 233).
Transfection of Cells with Human Histamine Receptor
A 10 cm tissue culture dish with a confluent monolayer of SK-N-MC cells was split two days prior to transfection. Using sterile technique the media was removed and the cells were detached from the dish by the addition of trypsin. One fifth of the cells were then placed onto a new 10 cm dish. Cells were grown in a 37° C. incubator with 5% CO2 in Minimal Essential Media Eagle with 10% Fetal Bovine Serum. After two days cells were approximately 80% confluent. These were removed from the dish with trypsin and pelleted in a clinical centrifuge. The pellet was then re-suspended in 400 μL complete media and transferred to an electroporation cuvette with a 0.4 cm gap between the electrodes (Bio-Rad #165-2088). One microgram of supercoiled H3 receptor cDNA was added to the cells and mixed. The voltage for the electroporation was set at 0.25 kV, the capacitance was set at 960 μF. After electroporation the cells were diluted into 10 mL complete media and plated onto four 10 cm dishes. Because of the variability in the efficiency of electroporation, four different concentrations of cells were plated. The ratios used were; 1:20, 1:10, 1:5, with the remainder of the cells being added to the fourth dish. The cells were allowed to recover for 24 hours before adding the selection media (complete media with 600 μg/mL G418). After 10 days dishes were analyzed for surviving colonies of cells. Dishes with well isolated colonies were used. Cells from individual colonies were isolated and tested. SK-N-MC cells were used because they give efficient coupling for inhibition of adenylate cyclase. The clones that gave the most robust inhibition of adenylate cyclase in response to histamine were used for further study.
[^3H]-N-methylhistamine Binding
Cell pellets from histamine H3 receptor-expressing SK-N-MC cells were homogenized in 20 mM TrisHCl/0.5 mM EDTA. Supernatants from a 800 g spin were collected, recentrifuged at 30,000 g for 30 minutes. Pellets were re-homogenized in 50 mM Tris/5 mM EDTA (pH 7.4). Membranes were incubated with 0.8 nM [^3H]-N-methylhistamine plus/minus test compounds for 45 min at 25° C. and harvested by rapid filtration over GF/C glass fiber filters (pretreated with 0.3% polyethylenimine) followed by four washes with ice cold buffer. Filters were dried, added to 4 mL scintillation cocktail and then counted on a liquid scintillation counter. Non-specific binding was defined with 10 μM histamine. The pKi values were calculated based on a Kd of 800 pM and a ligand concentration ([L]) of 800 pM according to the formula: Ki=(IC50)/(1+([L]/(Kd))

T1 sequence (Q9Y5N1 whole entry): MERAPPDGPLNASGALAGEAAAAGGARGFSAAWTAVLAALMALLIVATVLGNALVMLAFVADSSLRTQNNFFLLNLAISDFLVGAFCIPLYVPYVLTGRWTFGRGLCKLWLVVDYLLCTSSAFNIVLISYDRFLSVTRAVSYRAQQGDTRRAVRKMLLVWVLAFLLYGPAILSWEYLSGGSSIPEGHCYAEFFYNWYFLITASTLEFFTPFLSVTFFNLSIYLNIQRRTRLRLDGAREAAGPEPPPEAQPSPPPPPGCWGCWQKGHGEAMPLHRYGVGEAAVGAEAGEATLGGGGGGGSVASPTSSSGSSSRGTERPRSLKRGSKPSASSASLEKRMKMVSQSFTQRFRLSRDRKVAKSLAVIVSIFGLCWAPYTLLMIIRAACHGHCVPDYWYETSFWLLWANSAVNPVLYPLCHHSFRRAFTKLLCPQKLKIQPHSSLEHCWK

**Q.** `c1ccc(Oc2ccc([C@H]3CC[C@H]4CCCCN43)cc2)cc1` (racemic) [Example 11] was tested. Which Ki did it give?
**A.** 400 nM

**Q.** With `c1ccc(Oc2ccc([C@@H]3CC[C@H]4CCCCN43)cc2)cc1` (racemic) [Example 12] as the molecule, how does the Ki read?
**A.** 600 nM

**Q.** With `c1ccc(-c2ccc([C@H]3CC[C@H]4CCCCN43)cc2)cc1` (racemic) [Example 3] as the molecule, how does the Ki read?
**A.** 1000 nM

same assay, conditions: Table 2; [3H]-N-methylhistamine binding

**Q.** `c1cnc(Sc2ccc([C@H]3CC[C@H]4CCCCN43)cc2)nc1` (racemic) [Example 32] was tested. Which Ki did it give?
**A.** 650 nM

**Q.** How did the Ki turn out when `N#Cc1ccc(Sc2ccc([C@H]3CC[C@H]4CCCCN43)cc2)cc1` (racemic) [Example 38] was run?
**A.** 558 nM

**Q.** `O=c1[nH]c(Sc2ccc([C@H]3CC[C@H]4CCCCN43)cc2)nc2ccccc12` (racemic) [Example 33] was tested. Which Ki did it give?
**A.** 163 nM

same assay, conditions: Table 3; [3H]-N-methylhistamine binding

**Q.** With `Nc1cccc(-c2ccc([C@H]3CC[C@H]4CCCCN43)cc2)c1` (racemic) [Example 48] as the molecule, how does the Ki read?
**A.** 665 nM

**Q.** For `Fc1ccc(-c2ccc([C@H]3CC[C@H]4CCCCN43)cc2)cc1` (racemic) [Example 53], which Ki is on record?
**A.** 415 nM

same assay, conditions: Table 5; [3H]-N-methylhistamine binding

**Q.** Which Ki does the source give for `c1ccc(CNc2ccc([C@H]3CC[C@H]4CCCCN43)cc2)nc1` (racemic) [Example 128] here?
**A.** 1340 nM

**Q.** Which Ki does the source give for `c1ccc(CNc2ccc([C@H]3CC[C@H]4CCCCN43)cc2)cc1` (racemic) [Example 132] here?
**A.** 511 nM

**Q.** With `c1c[nH]c(CNc2ccc([C@H]3CC[C@H]4CCCCN43)cc2)n1` (racemic) [Example 134] as the molecule, how does the Ki read?
**A.** 3640 nM

**Q.** `[O-][n+]1ccc(CNc2ccc([C@H]3CC[C@H]4CCCCN43)cc2)cc1` (racemic) [Example 133] was tested. Which Ki did it give?
**A.** 4380 nM

same assay, conditions: [3H]-N-methylhistamine 0.8 nM, membranes of H3 receptor-expressing SK-N-MC cells

**Q.** With `c1cc([C@@H]2CC[C@@H]3CCCCN32)ccc1NC1CCNCC1` (relative stereo) [Example 101, trans-3-[4-(4-Piperidinylamino)phenyl]octahydroindolizine] as the molecule, how does the Ki read?
**A.** 314 nM

**Q.** `C[Si](C)(C)C#Cc1ccc([C@H]2CC[C@H]3CCCCN32)cc1` (racemic) [Example 74, trans-3-(4-trimethylsilylacetylenephenyl)octahydroindolizine] was tested. Which Ki did it give?
**A.** 1500 nM

**Q.** For `Nc1ccc([C@@H]2CC[C@@H]3CCCCN32)cc1` (relative stereo) [Example 95, trans-3-(4-Aminophenyl)octahydroindolizine], which Ki is on record?
**A.** 32 nM

**Q.** With `c1cc(Oc2ccc([C@H]3CC[C@H]4CCCCN43)cc2)ccn1` (racemic) [Example 76, trans-3-[4-(4-Pyridyloxy)phenyl]octahydroindolizine] as the molecule, how does the Ki read?
**A.** 77 nM

**Q.** How did the Ki turn out when “N-Methyl-N-[4-(trans-Octahydro-3-indolizinyl)phenyl]-3-piperidinylpropenamide [Example 109]” was run?
**A.** 1 nM

**Q.** `CC(C)(C)OC(=O)N1CCC(Nc2ccc([C@H]3CC[C@H]4CCCCN43)cc2)CC1` (racemic) [Example 100] was tested. Which Ki did it give?
**A.** 517 nM

**Q.** `c1cc([C@@H]2CCC[C@@H]3CCCN32)ccc1OCCCCCN1CCCCC1` [Example 65] was tested. Which Ki did it give?
**A.** 1 nM

**Q.** Which Ki does the source give for `C(#CCN1CCCCC1)COc1ccc([C@H]2CC[C@H]3CCCCN32)cc1` (relative stereo) [Example 84, trans-3-[4-(3-Piperidinylmethylpropargyloxy)phenyl]octahydroindolizine] here?
**A.** 1.8 nM

**Q.** `OC(c1ccc(Cl)cc1)c1ccc(C2CCC3CCCCN32)cc1` (mixture of isomers) [Example 123, trans-3-{4-[(4-Chlorophenyl)methan-1-ol]phenyl}octahydroindolizine] was tested. Which Ki did it give?
**A.** 803 nM

**Q.** For `OC(c1ccncc1)c1ccc([C@H]2CC[C@H]3CCCCN32)cc1` (stereo partly drawn) [Example 24, trans-3-[4-(4-Pyridylmethan-1-ol)phenyl]octahydroindolizine], which Ki is on record?
**A.** 82 nM

**Q.** For `c1cc(Sc2ccc([C@H]3CC[C@H]4CCCCN43)cc2)ccn1` [Example 137, (R, R)-Octahydro-3-[4-(4-pyridinylthio)phenyl]indolizine], which Ki is on record?
**A.** 3.8 nM

**Q.** With `c1cc(Sc2ccc(C3CCC4CCCCN43)cc2)ccn1` (centres unmarked) [Example 136, Octahydro-3-[4-(4-pyridinylthio)phenyl]indolizine] as the molecule, how does the Ki read?
**A.** 7.5 nM

**Q.** `c1ccc([C@H]2C[C@@H]3CCCCN3C2)c(OCCCN2CCCCC2)c1` (relative stereo) [Example 71, anti-2-[2-(3-Piperidinylpropoxy)phenyl]octahydroindolizine] was tested. Which Ki did it give?
**A.** 315 nM

**Q.** With `C=CC(=O)N(C)c1ccc([C@@H]2CC[C@@H]3CCCCN32)cc1` (relative stereo) [Example 108, N-Methyl-N-[4-(trans-Octahydro-3-indolizinyl)phenyl]propenamide] as the molecule, how does the Ki read?
**A.** 2770 nM

**Q.** `CN1CCCC1CCOc1ccc([C@H]2CC[C@H]3CCCCN32)cc1` (mixture of isomers) [Example 91, trans-3-{4-[2,2′-(N-Methylpyrrolidinyl)ethoxy]phenyl}octahydroindolizine] was tested. Which Ki did it give?
**A.** 2 nM

**Q.** With `CN(C)CCNc1cccc([C@H]2CC[C@H]3CCCCN32)c1` (racemic) [Example 56, tran-3-[4-(3-(2-Dimethylaminoethyl)amino)phenyl]octahydroindolizine] as the molecule, how does the Ki read?
**A.** 75 nM

**Q.** For `COc1ccccc1[C@H]1C[C@@H]2CCCCN2C1` (relative stereo) [Example 70, anti-2-(2-Methoxyphenyl)octahydroindolizine], which Ki is on record?
**A.** 792 nM

**Q.** Which Ki does the source give for `c1cc([C@@H]2CC[C@@H]3CCCCN32)ccc1OCCCN1CCCCC1` [Example 94, (S, S)-3-(4-(3-Piperidinylpropoxy)phenyl)octahydroindolizine] here?
**A.** 0.06 nM

**Q.** Which Ki does the source give for `NC(=NO)c1ccc(Sc2ccc([C@H]3CC[C@H]4CCCCN43)cc2)cc1` (racemic) [Example 43, tran-3-[4-((4-Amidoxime)phenylthio)phenyl]octahydroindolizine] here?
**A.** 40 nM

**Q.** How did the Ki turn out when `O=C(O)c1ccc(Sc2ccc([C@H]3CC[C@H]4CCCCN43)cc2)cc1` (racemic) [Example 42, tran-3-[4-(4-Carboxylicphenylthio)phenyl]octahydroindolizine] was run?
**A.** 21 nM

**Q.** For `CS(=O)(=O)N(c1cccc(COc2ccc([C@H]3CC[C@H]4CCCCN43)cc2)c1)S(C)(=O)=O` (racemic) [Example 82, trans-3-[4-(3-bis-Methansulfonaminobenzyloxy)phenyl]octahydroindolizine], which Ki is on record?
**A.** 128 nM

**Q.** How did the Ki turn out when `C#Cc1ccc([C@H]2CC[C@H]3CCCCN32)cc1` (racemic) [Example 75, trans-3-(4-acetylenephenyl)octahydroindolizine] was run?
**A.** 1100 nM

**Q.** `CN1CCCCC1CCOc1ccc([C@H]2CC[C@H]3CCCCN32)cc1` (mixture of isomers) [Example 87, trans-3-{4-[2,2′-(N-Methylpiperidinyl)ethoxy]phenyl}octahydroindolizine] was tested. Which Ki did it give?
**A.** 7 nM

**Q.** `O=[N+]([O-])c1ccc(Sc2ccc([C@@H]3CCC[C@@H]4CCCN43)cc2)cc1` (racemic) [Example 27, 5-[4-(4-Nitrophenylthio)phenyl]octahydroindolizine] was tested. Which Ki did it give?
**A.** 323 nM

**Q.** How did the Ki turn out when `N=C(N)N1CCCCC1CCOc1ccc([C@H]2CC[C@H]3CCCCN32)cc1` (mixture of isomers) [Example 90, trans-3-{4-[2,2′-(N-Amidinopiperidinyl)ethoxy]phenyl}octahydroindolizine] was run?
**A.** 80 nM

**Q.** With `Nc1ccc(Sc2ccc([C@H]3CC[C@H]4CCCCN43)cc2)cc1` (racemic) [Example 40, tran-3-[4-(4-Aminophenylthio)phenyl]octahydroindolizine] as the molecule, how does the Ki read?
**A.** 62 nM

**Q.** For `CN(c1ccc([C@H]2CC[C@H]3CCCCN32)cc1)S(C)(=O)=O` (racemic) [Example 99, trans-3-(4-(N-Methyl-N-methylsulfonylamido)phenyl)octahydroindolizine], which Ki is on record?
**A.** > 5000 nM

**Q.** With `c1cc([C@H]2CC[C@H]3CCCCN32)ccc1OCCCN1CCCCC1` [Example 93, (R, R)-3-(4-(3-Piperidinylpropoxy)phenyl)octahydroindolizine] as the molecule, how does the Ki read?
**A.** 0.06 nM

**Q.** `Clc1ccc(Cc2ccc([C@H]3CC[C@H]4CCCCN43)cc2)cc1` (racemic) [Example 125] was tested. Which Ki did it give?
**A.** 655 nM
